Data: patent publication US20250186452A1, “NOVEL USE OF QUINOLINE COMPOUND” (TARAPEUTICS SCIENCE INC., priority 2022, published 2025)

How the values were obtained:
M-NSF-60 = experiment: Proliferation of M-NSF-60 cells with M-CSF (CCK-8, 72 hours); type: cell-based, mouse; settings: Mus musculus; M-CSF 50 ng/ml in medium, 72 hours incubation, CCK-8; read-out: M-NSF-60 (GI50/μM)
Protocol: (§1) The incubated cells were detected by CCK-8 (purchased from MedChem Express, China) cell viability detection kit (CCK-8 can be reduced by dehydrogenases in living cells to a highly water-soluble yellow formazan product, and the amount of the generated formazan product is proportional to the number of living cells). The number of living cells was quantified by a microplate reader, and the GI50 for each compound was calculated (the results are shown in Table 2).

TEL-CSF1R-BaF3 = molecular target: T1, TEL-CSF1R-BaF3 (Homo sapiens, UniProt P07333); experiment: Proliferation of TEL-CSF1R-BaF3 cells (CCK-8, 72 hours); type: cell-based; settings: 72 hours incubation, CCK-8
T1 construct: expressed in transfected cells; host or cells: mouse BaF3 cells (ATCC), retroviral transduction with MSCV-Puro vector, IL-3 withdrawn; the other entry of the earlier key: ETV6 (P41212, Transcription factor ETV6)
T1 sequence (P07333 582-910 limits assumed): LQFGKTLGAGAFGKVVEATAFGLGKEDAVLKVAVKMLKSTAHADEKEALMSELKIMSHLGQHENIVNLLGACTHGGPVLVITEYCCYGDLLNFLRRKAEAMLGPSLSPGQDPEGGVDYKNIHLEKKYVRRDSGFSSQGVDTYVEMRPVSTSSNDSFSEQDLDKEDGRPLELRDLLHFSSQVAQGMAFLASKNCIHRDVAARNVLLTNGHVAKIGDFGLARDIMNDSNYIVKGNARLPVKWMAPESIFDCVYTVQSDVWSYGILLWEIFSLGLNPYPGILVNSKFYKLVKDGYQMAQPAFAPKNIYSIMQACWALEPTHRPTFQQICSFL
Protocol: as §1
The construction method of the TEL-CSF1R-BaF3 cell line (a cell line stably expressing CSF1R kinase) was as follows: the sequence of human CSF1R kinase region was amplified by PCR and inserted into the MSCV-Puro vector (Clontech) with an N-terminal TEL fragment, and stably transferred into mouse BaF3 cells (purchased from ATCC, USA) by a retroviral method, and IL-3 growth factor was removed, finally a cell line dependent on CSF1R transferred protein was obtained.

MC38 cells = experiment: In vivo efficacy in MC38 cell tumor transplantation mouse model; settings: 50 mg/kg oral once a day
Protocol: (§2) In this example, the experimental effects of Compound 2 and the control compound PLX3397 (purchased from MedChem Express, China) in MC38 and 4T1 mouse models were tested respectively.
(§3) The experimental procedure was as follows: • (1) C57BL/6J male mice for use as MC38 transplanted tumor model and Balb/c male mice for use as 4T1 transplanted tumor model, which were 6 weeks old, were purchased from GemPharmatech Co., Ltd, Jiangsu. All the above mice were raised in an SPF laboratory, and the drinking water and padding had been sterilized by high pressure sterilization. All operations related to mice were performed under sterile conditions. • (2) On day 0, approximately 1×10^6 MC38 cells (purchased from ATCC) were injected subcutaneously into the left back of each of the C57BL/6J mice, and approximately 1×10^6 4T1 cells (purchased from ATCC) were injected subcutaneously into the left back of each of the Balb/c mice. • (3) For the MC38 mouse model, starting from the 6th day, the corresponding mice were orally administered with methylcellulose (HKI) (purchased from China National Pharmaceutical Group Corporation) solvent once a day (5 mice); Compound 2 at a dose of 50 mg/kg mouse weight once a day (5 mice); PLX3397 at a dose of 50 mg/kg mouse weight once a day (5 mice). For the 4T1 mouse model, starting from the 6th day, the corresponding mice were orally administered with 10% HS-15 (purchased from BASF, Germany) solvent (5 mice); Compound 2 at a dose of 50 mg/kg mouse weight once a day (5 mice); PLX3397 at a dose of 50 mg/kg mouse weight once a day (5 mice). • (4) Starting from the 6th day, the length/width of the subcutaneous tumor was measured with a vernier caliper every day, and the weight of the mice was recorded every day to determine the effects of Compound 2 and control compound PLX3397 on the weight of mice in different model mice. The results are shown in FIGS. 3 and 6. • (5) The growth trends of subcutaneous tumors in mice of different models were statistically analyzed. The tumor volume was calculated using the following method: length×width×width/2 mm^3. The results are shown in FIGS. 4 and 7. • (6) Isolation of tumor-infiltrating lymphocytes: Tumor tissue was first minced (tissue block less than 1 mm^3) with a surgical blade, resuspended in 6 ml of digestion solution (collagenase IV and 0.005% DNaseI enzyme, both purchased from Sigma, USA), and the mixture was transferred to a 15-ml centrifuge tube. The centrifuge tube was then placed in a shaker at 37° C. and digested with shaking at 220 r/min for 2 hours. The cells were sieved through a 200-mesh sieve and collected in a 50-ml centrifuge tube, and centrifuged at 1500 rpm for 10 minutes. The supernatant was then discarded, and 10 ml of DMEM medium (10% FBS) (purchased from GIBCO, USA) was added to the tube to terminate the digestion. The tube was placed in a centrifuge, and centrifuged at 1500 rpm for another 10 minutes. The supernatant was discarded. At the same time, Percoll separation solution (purchased from Millipore, USA) was prepared, and 90% Percoll separation working solution was prepared using 10×PBS. To a 15 ml centrifuge tube, 3-4 ml of 70% Percoll separation solution was added. The cells were resuspended in 4 ml of 40% Percoll separation solution, and the cell mixture was added to the 70% Percoll separation solution. The centrifuge tube was placed in a centrifuge and subjected to density gradient centrifugation at 25° C., 1260 g, for 30 minutes (speed up 5, speed down 0). After the centrifugation, the centrifuge tube was placed on a centrifuge tube rack, the middle leukocyte layer was aspirated with a pipette, and added to 10 ml of PBS, they were mixed well and placed in a centrifuge, and centrifuged at 1500 rpm. The cell supernatant was discarded after 10 min and the cells were resuspended in 5 ml of PBS, centrifuged at 1500 rpm for another 10 min, and the washing process was repeated once. The cells obtained were leukocytes in the tumor tissue. […]

4T1 cells = experiment: In vivo efficacy in 4T1 cell tumor transplantation mouse model; settings: 4T1 model, 50 mg/kg oral once a day
Protocol: as §2, §3

GI50 (TEL-CSF1R-BaF3) | Compound | GI50 (M-NSF-60) | toxicity (mouse body weight) (MC38 cells; FIG. 3) | inhibition effect of mouse tumors (MC38 cells; FIG. 4) | toxicity (mouse body weight) (4T1 cells; FIG. 6) | inhibition effect of mouse tumors (4T1 cells; FIG. 7)
0.026 µM | COc1cc2nccc(Oc3ccc(NC(=O)Cc4ccc(Cl)c(C(F)(F)F)c4)cc3Cl)c2cc1OC [Example 38, N-(3-chloro-4-((6,7-dimethoxyquinolin-4-yl)oxy)phenyl)-2-(4-chloro-3-(trifluoromethyl)phenyl)acetamide] | 0.32 µM | – | – | – | –
0.022 µM | COc1cc2nccc(Oc3ccc(NC(=O)Cc4ccc(Cl)c(C(F)(F)F)c4)cc3C#N)c2cc1OC [Example 39, N-(3-cyano-4-((6,7-dimethoxyquinolin-4-yl)oxy)phenyl)-2-(4-chloro-3-(trifluoromethyl)phenyl)acetamide] | 0.61 µM | – | – | – | –
0.007 µM | COc1cc2nccc(Oc3ccc(NC(=O)Cc4ccccc4C(F)(F)F)cc3)c2cc1OC [Example 40, N-(4-((6,7-dimethoxyquinolin-4-yl)oxy)phenyl)-2-(2-(trifluoromethyl)phenyl)acetamide] | 0.091 µM | – | – | – | –
– | FC(F)(F)c1ccc(CNc2ccc(Cc3c[nH]c4ncc(Cl)cc34)cn2)cn1 [PLX3397, reference compound] | – | no obvious toxicity | good inhibition effect of mouse tumors | no obvious toxicity | good inhibition effect of mouse tumors
